Targets include MINK1 (Homo sapiens, UniProt Q8N4C8); NUAK2 (Homo sapiens, UniProt Q9H093); BRAF (Homo sapiens, UniProt P15056); SRC (Homo sapiens, UniProt P12931); SGK1 (Homo sapiens, UniProt O00141); TTK (Homo sapiens, UniProt P33981); EPHB4 (Homo sapiens, UniProt P54760); RPS6KB1 (Homo sapiens, UniProt P23443); MAP3K15 (Homo sapiens, UniProt Q6ZN16); CSF1R-autoinhibited (Homo sapiens, UniProt P07333); STK24 (Homo sapiens, UniProt Q9Y6E0); PDGFRA (Homo sapiens, UniProt P16234); NTRK2 (Homo sapiens, UniProt Q16620); PRKAA1 (Homo sapiens, UniProt Q13131); CDK8 (Homo sapiens, UniProt P49336); MAP3K4 (Homo sapiens, UniProt Q9Y6R4); HUNK (Homo sapiens, UniProt P57058); PAK1 (Homo sapiens, UniProt Q13153); BLK (Homo sapiens, UniProt P51451).

Holding throughout (assay): biochemical
What all share (design): KINOMEscan competition binding, DNA-tagged kinase against immobilised ligand, qPCR read-out
Common to all, as to details: read-out: Percent Control
(Real-time PCR tracks product formation cycle by cycle.)

Another experiment concerns the target T1, ADRBK1 (Homo sapiens, UniProt P25098).
T1 construct: gene GRK2

Chain of MAP3K15 (Q6ZN16 whole entry): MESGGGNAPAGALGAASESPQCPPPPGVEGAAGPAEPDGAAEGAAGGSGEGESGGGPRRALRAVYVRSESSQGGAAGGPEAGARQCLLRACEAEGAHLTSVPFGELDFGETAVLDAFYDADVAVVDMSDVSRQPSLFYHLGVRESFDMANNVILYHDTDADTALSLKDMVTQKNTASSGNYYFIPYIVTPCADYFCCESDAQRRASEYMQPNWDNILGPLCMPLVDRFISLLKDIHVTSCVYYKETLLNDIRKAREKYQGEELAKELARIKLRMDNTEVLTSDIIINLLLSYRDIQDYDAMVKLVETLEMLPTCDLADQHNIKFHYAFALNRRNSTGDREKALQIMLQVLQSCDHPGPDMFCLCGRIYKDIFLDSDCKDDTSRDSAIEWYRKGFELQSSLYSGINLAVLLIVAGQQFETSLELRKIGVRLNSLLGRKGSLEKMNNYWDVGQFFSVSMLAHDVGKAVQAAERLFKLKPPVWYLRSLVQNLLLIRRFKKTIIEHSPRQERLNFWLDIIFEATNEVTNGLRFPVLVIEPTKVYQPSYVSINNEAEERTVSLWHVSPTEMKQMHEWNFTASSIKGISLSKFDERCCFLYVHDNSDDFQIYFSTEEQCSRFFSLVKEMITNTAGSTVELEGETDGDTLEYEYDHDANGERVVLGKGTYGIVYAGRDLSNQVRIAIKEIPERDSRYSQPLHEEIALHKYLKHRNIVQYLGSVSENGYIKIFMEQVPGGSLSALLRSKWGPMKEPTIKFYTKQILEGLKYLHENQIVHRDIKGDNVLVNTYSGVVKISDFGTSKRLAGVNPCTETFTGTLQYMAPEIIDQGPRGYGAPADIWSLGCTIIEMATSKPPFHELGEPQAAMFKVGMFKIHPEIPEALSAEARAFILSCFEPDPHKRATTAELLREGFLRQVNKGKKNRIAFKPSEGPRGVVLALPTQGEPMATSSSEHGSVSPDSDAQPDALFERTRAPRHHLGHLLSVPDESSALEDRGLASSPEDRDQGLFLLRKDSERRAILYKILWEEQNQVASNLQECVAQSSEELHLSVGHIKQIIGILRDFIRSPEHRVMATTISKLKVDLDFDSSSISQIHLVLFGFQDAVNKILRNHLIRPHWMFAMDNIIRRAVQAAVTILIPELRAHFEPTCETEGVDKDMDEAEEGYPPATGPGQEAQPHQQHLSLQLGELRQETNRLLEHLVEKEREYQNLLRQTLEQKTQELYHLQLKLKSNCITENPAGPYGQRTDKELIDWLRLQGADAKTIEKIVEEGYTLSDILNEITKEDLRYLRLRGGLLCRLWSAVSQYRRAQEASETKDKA
Chain of BLK (P51451 whole entry): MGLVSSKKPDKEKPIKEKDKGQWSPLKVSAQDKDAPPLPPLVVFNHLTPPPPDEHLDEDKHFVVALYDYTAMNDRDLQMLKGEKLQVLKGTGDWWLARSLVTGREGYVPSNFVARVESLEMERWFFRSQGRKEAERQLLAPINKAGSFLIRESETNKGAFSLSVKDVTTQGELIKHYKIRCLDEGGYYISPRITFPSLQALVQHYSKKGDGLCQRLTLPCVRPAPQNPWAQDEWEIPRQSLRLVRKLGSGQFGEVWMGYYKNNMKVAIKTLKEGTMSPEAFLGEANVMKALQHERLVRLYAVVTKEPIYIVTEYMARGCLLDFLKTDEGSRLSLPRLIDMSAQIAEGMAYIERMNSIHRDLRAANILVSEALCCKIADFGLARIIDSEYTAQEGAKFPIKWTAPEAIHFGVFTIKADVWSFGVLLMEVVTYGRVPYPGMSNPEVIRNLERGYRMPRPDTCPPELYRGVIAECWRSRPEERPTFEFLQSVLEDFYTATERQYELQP
Chain of MINK1 (Q8N4C8 whole entry): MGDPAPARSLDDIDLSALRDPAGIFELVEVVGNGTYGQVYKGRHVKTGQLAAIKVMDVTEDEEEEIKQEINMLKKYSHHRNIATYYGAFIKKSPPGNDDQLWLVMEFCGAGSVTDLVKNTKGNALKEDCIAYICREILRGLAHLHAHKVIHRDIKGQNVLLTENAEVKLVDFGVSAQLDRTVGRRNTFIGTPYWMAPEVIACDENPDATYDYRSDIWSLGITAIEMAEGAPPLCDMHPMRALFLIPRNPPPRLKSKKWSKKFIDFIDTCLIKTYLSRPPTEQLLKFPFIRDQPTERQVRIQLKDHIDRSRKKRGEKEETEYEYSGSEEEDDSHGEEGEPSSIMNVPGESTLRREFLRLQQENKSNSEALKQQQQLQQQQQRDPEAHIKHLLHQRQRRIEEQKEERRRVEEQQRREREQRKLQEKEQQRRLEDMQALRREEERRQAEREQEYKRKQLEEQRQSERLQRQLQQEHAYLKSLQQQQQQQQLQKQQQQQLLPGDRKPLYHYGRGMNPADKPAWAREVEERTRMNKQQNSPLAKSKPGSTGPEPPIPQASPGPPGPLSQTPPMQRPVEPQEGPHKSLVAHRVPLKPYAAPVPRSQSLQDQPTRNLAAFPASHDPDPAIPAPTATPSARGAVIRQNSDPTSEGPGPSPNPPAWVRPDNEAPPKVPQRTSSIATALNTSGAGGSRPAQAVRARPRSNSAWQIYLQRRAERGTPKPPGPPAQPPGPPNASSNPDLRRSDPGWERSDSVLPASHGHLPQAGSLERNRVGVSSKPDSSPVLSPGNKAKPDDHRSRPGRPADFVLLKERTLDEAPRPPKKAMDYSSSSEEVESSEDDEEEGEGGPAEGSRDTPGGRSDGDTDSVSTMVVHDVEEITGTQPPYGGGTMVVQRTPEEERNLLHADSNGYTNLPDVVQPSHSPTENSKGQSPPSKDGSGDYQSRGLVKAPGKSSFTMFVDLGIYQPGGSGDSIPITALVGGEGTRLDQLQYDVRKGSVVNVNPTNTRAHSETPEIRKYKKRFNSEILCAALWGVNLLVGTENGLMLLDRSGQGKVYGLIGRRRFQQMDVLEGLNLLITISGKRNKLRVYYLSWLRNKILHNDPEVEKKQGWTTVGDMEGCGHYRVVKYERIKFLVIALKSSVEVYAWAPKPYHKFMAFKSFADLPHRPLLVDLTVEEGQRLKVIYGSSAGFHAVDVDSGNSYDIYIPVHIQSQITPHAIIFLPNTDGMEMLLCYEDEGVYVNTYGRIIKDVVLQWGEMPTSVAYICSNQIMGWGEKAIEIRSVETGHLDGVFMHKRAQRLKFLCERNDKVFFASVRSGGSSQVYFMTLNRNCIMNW
Chain of MAP3K4 (Q9Y6R4 whole entry): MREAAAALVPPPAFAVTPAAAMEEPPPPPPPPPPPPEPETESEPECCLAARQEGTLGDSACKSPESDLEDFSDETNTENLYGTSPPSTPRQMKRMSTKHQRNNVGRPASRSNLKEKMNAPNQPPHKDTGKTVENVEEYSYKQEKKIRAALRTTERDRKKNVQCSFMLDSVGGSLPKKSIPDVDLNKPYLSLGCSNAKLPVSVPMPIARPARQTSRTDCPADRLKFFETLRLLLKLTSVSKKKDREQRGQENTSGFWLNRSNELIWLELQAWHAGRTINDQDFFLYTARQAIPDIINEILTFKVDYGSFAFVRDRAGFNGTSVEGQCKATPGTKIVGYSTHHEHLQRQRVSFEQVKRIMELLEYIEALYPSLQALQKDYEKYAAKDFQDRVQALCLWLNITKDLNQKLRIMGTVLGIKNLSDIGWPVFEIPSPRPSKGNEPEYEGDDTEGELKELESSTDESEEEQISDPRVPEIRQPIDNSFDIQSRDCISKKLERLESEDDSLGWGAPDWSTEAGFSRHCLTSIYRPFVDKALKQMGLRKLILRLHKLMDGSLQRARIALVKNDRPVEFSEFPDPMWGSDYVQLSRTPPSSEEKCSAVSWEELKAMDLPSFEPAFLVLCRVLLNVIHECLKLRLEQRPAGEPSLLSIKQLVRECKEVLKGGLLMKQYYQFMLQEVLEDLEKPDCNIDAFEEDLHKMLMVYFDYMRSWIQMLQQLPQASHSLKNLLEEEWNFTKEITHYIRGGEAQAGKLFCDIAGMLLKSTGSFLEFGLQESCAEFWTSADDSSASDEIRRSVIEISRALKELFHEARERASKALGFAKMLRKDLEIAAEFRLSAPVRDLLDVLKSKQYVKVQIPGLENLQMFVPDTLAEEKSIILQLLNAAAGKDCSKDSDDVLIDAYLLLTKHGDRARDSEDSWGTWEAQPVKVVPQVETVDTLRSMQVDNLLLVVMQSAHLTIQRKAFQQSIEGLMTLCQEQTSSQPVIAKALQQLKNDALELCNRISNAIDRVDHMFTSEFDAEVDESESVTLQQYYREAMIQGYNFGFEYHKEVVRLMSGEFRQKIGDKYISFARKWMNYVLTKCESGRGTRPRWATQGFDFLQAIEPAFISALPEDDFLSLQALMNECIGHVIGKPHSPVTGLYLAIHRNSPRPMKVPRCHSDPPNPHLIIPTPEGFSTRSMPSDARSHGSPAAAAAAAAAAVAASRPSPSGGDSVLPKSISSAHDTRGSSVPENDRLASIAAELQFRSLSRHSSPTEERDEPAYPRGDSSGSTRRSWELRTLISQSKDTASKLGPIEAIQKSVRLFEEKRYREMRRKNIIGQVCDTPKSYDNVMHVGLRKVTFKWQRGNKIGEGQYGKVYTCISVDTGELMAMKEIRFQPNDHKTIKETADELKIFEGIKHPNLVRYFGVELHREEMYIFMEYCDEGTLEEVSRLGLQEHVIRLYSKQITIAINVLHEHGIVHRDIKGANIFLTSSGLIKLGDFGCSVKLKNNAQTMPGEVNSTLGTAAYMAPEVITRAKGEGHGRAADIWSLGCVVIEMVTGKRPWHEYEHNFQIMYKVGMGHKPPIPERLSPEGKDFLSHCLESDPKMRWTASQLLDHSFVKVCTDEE

On to `Oc1ccc(C2=Cc3ccc(O)cc3OC2)cc1` [compound 1, idronoxil], for which the remaining binding at 10 µM on MINK1 amounted to 38%; on NUAK2, 68%; on BRAF, 76%; on SRC, 47%; at SGK1 it was 77%; at TTK it was 83%. Besides, the remaining binding at 10 µM on ADRBK1 stood at 76%; at EPHB4, 90%; at RPS6KB1 it was 84%; at MAP3K15, 100%; at CSF1R-autoinhibited it was 67%; on STK24 it was 79%. The remaining binding at 10 µM is 29% at PDGFRA; 62% on NTRK2; 100% on PRKAA1; 58% at CDK8; 76% on MAP3K4; 69% at HUNK. For the same compound, the results for the remaining binding at 10 µM at PAK1 and at BLK were 60% and 57%, respectively.

For the origin of these results see PMC10507085, “Pharmacological inhibition of TBK1/IKKε blunts immunopathology in a murine model of SARS-CoV-2 infection” (Nature Communications, 2023).
